The results in this text go back to patent US11173151B2, “Substituted triazole derivatives and uses thereof” (BAYER AKTIENGESELLSCHAFT, priority 2017, dated 2021).

The structures appear in SMILES notation.

One experiment has as its target T1, human V2 receptor (Homo sapiens, UniProt P30518).
T1 construct: expressed in transfected cells; host or cells: CHO K1 (ATCC) expressing firefly luciferase under a CRE-responsive promoter
Nature of the experiment: Cellular in vitro assay for determining vasopressin receptor activity, V2 receptor cell line (CHO, CRE-luciferase). The format is cell-based. The note with it: CHO cell line transfected with human V2 receptor; [Arg8]-vasopressin at EC50 concentration; read-out: IC50 hV2.

Another experiment addresses T2, human V1a receptor (Homo sapiens, UniProt P37288).
T2 construct: expressed in transfected cells; host or cells: CHO K1 (ATCC), also stably transfected with a modified aequorin
The experiment is described as follows: Cellular in vitro assay for determining vasopressin receptor activity, V1a receptor cell line (CHO, aequorin luminescence). The format is cell-based. The note with it: for IC50: CHO cell line transfected with human V1a receptor, [Arg]-vasopressin at EC50 concentration, read-out: IC50 hV1a; for ratio IC50 hV2/hV1a: selectivity ratio IC50 hV2 / IC50 hV1a. A digest of the protocol: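 Antagonism is measured in stable CHO K1 transfectants coexpressing the Gαq-coupled receptor and a calcium-sensitive aequorin photoprotein. Agonist challenge uses [Arg]-vasopressin at EC50 after a 10-minute compound exposure; IC50 values come from the luminescence signal.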

T2 sequence (P37288 whole entry): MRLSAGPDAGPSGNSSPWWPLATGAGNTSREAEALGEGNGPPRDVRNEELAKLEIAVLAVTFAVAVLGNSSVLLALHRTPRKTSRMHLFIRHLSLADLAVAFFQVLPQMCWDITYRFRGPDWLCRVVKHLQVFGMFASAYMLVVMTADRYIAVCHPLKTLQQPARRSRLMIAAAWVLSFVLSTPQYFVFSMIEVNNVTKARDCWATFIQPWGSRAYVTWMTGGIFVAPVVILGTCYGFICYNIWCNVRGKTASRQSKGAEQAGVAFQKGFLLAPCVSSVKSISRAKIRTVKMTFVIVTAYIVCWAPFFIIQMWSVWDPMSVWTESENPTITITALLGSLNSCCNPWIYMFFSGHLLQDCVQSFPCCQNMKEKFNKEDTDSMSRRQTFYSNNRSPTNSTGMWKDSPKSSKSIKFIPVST
T1 sequence (P30518 whole entry): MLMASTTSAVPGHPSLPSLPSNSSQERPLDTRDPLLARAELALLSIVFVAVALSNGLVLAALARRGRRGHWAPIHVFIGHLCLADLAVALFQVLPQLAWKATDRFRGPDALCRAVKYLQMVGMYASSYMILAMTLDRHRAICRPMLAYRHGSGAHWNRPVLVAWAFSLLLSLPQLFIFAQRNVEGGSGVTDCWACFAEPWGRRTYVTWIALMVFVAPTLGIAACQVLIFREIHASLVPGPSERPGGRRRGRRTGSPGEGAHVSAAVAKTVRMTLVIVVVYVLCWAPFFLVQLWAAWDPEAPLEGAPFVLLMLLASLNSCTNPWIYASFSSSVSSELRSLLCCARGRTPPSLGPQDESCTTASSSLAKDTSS

`CC1(NC(=O)c2cccc(C(F)(F)F)c2-n2cnc(Cn3nc(-c4ccc(Cl)cc4)n(C[C@H](O)C(F)(F)F)c3=O)n2)CC1` [Example 414, 2-[3-({3-(4-Chlorophenyl)-5-oxo-4-[(2S)-3,3,3-trifluoro-2-hydroxypropyl]-4,5-dihydro-1H-1,2,4-triazol-1-yl}methyl)-1H-1,2,4-triazol-1-yl]-N-(1-methylcyclopropyl)-3-(trifluoromethyl)benzamide]: the IC50 (as a rule, the concentration that gives 50% inhibition) at human V2 receptor amounted to 3.6 µM. Moreover, on human V1a receptor, the concentration for half-maximal inhibition (IC50) was found to be 0.0445 µM and the “ratio IC50 hV2/hV1a” value stood at 80.9.

With `O=C(NC1CC1)c1cccc(C(F)(F)F)c1-n1cnc(Cn2nc(-c3ccc(Cl)cc3)n(C[C@H](O)C(F)(F)F)c2=O)n1` [Example 415, 2-[3-({3-(4-Chlorophenyl)-5-oxo-4-[(2S)-3,3,3-trifluoro-2-hydroxypropyl]-4,5-dihydro-1H-1,2,4-triazol-1-yl}methyl)-1H-1,2,4-triazol-1-yl]-N-cyclopropyl-3-(trifluoromethyl)benzamide], at human V2 receptor, the IC50 came out at 1.5 µM. On human V1a receptor, the IC50 was 0.0535 µM and the “ratio IC50 hV2/hV1a” value came out at 28.0.

With `COC[C@H]1CCCN1C(=O)c1cccc(C(F)(F)F)c1-n1cnc(Cn2nc(-c3ccc(Cl)cc3)n(C[C@H](O)C(F)(F)F)c2=O)n1` [Example 416, 5-(4-Chlorophenyl)-2-({1-[2-{[(2R)-2-(methoxymethyl)pyrrolidin-1-yl]carbonyl}-6-(trifluoromethyl)phenyl]-1H-1,2,4-triazol-3-yl}methyl)-4-[(2S)-3,3,3-trifluoro-2-hydroxypropyl]-2,4-dihydro-3H-1,2,4-triazol-3-one], the IC50 at human V2 receptor worked out at 5.85 µM. Moreover, on human V1a receptor, the IC50 turned out to be 0.0515 µM and the “ratio IC50 hV2/hV1a” value was 113.6.

As for `O=C(NC1CC(F)(F)C1)c1cccc(C(F)(F)F)c1-n1cnc(Cn2nc(-c3ccc(Cl)cc3)n(C[C@H](O)C(F)(F)F)c2=O)n1` [Example 417, 2-[3-({3-(4-Chlorophenyl)-5-oxo-4-[(2S)-3,3,3-trifluoro-2-hydroxypropyl]-4,5-dihydro-1H-1,2,4-triazol-1-yl}methyl)-1H-1,2,4-triazol-1-yl]-N-(3,3-difluorocyclobutyl)-3-(trifluoromethyl)benzamide], the IC50 on human V2 receptor is 0.315 µM. For the same compound, on human V1a receptor, the IC50 is 0.0375 µM and the “ratio IC50 hV2/hV1a” value is given as 8.4.

As to `O=C(c1cccc(C(F)(F)F)c1-n1cnc(Cn2nc(-c3ccc(Cl)cc3)n(C[C@H](O)C(F)(F)F)c2=O)n1)N1CCS(=O)(=O)CC1` [Example 418, 5-(4-Chlorophenyl)-2-[(1-{2-[(1,1-dioxidothiomorpholin-4-yl)carbonyl]-6-(trifluoromethyl)phenyl}-1H-1,2,4-triazol-3-yl)methyl]-4-[(2S)-3,3,3-trifluoro-2-hydroxypropyl]-2,4-dihydro-3H-1,2,4-triazol-3-one], the IC50 on human V2 receptor came out at 32 µM. Besides, at human V1a receptor, the IC50 worked out at 0.635 µM and the “ratio IC50 hV2/hV1a” value is 50.4.

Take `O=C(NCC1CC1)c1cccc(C(F)(F)F)c1-n1cnc(Cn2nc(-c3ccc(Cl)cc3)n(C[C@H](O)C(F)(F)F)c2=O)n1` [Example 419, 2-[3-({3-(4-Chlorophenyl)-5-oxo-4-[(2S)-3,3,3-trifluoro-2-hydroxypropyl]-4,5-dihydro-1H-1,2,4-triazol-1-yl}methyl)-1H-1,2,4-triazol-1-yl]-N-(cyclopropylmethyl)-3-(trifluoromethyl)benzamide]: the IC50 at human V2 receptor stood at 1.02 µM; on human V1a receptor, 0.096 µM. The “ratio IC50 hV2/hV1a” value at human V1a receptor was found to be 10.7.

As to `O=C(NCCC(F)(F)F)c1cccc(C(F)(F)F)c1-n1cnc(Cn2nc(-c3ccc(Cl)cc3)n(C[C@H](O)C(F)(F)F)c2=O)n1` [Example 421, 2-[3-({3-(4-Chlorophenyl)-5-oxo-4-[(2S)-3,3,3-trifluoro-2-hydroxypropyl]-4,5-dihydro-1H-1,2,4-triazol-1-yl}methyl)-1H-1,2,4-triazol-1-yl]-3-(trifluoromethyl)-N-(3,3,3-trifluoropropyl)benzamide], the IC50 at human V2 receptor was 0.37 µM; at human V1a receptor, 0.022 µM. Further, the “ratio IC50 hV2/hV1a” value on human V1a receptor stood at 16.8.

On to `COC[C@@H]1CCCN1C(=O)c1cccc(C(F)(F)F)c1-n1cnc(Cn2nc(-c3ccc(Cl)cc3)n(C[C@H](O)C(F)(F)F)c2=O)n1` [Example 423, 5-(4-Chlorophenyl)-2-({1-[2-{[(2S)-2-(methoxymethyl)pyrrolidin-1-yl]carbonyl}-6-(trifluoromethyl)phenyl]-1H-1,2,4-triazol-3-yl}methyl)-4-[(2S)-3,3,3-trifluoro-2-hydroxypropyl]-2,4-dihydro-3H-1,2,4-triazol-3-one], for which the IC50 at human V2 receptor was found to be 18.9 µM. At human V1a receptor, the IC50 is 0.04 µM and the “ratio IC50 hV2/hV1a” value amounted to 472.5.

As to `CC(C)(N)CNC(=O)c1cc(F)ccc1-n1cnc(Cn2nc(-c3ccc(Cl)cc3)n(C[C@H](O)C(F)(F)F)c2=O)n1` [Example 424, N-(2-Amino-2-methylpropyl)-2-[3-({3-(4-chlorophenyl)-5-oxo-4-[(2S)-3,3,3-trifluoro-2-hydroxypropyl]-4,5-dihydro-1H-1,2,4-triazol-1-yl}methyl)-1H-1,2,4-triazol-1-yl]-5-fluorobenzamide], the IC50 at human V2 receptor stood at 2.65 µM. Moreover, at human V1a receptor, the half-maximal inhibitory concentration (IC50) worked out at 0.0115 µM and the “ratio IC50 hV2/hV1a” value stood at 230.4.

Turning to `CNC(=O)c1cc(F)ccc1-n1cnc(Cn2nc(-c3ccc(Cl)cc3)n(C[C@H](O)C(F)(F)F)c2=O)n1` [Example 425, 2-[3-({3-(4-Chlorophenyl)-5-oxo-4-[(2S)-3,3,3-trifluoro-2-hydroxypropyl]-4,5-dihydro-1H-1,2,4-triazol-1-yl}methyl)-1H-1,2,4-triazol-1-yl]-5-fluoro-N-methylbenzamide], the IC50 at human V2 receptor came out at 0.1 µM. Also, at human V1a receptor, the IC50 came out at 0.00985 µM and the “ratio IC50 hV2/hV1a” value stood at 10.2.

Consider `O=C(NCC(F)(F)F)c1cc(F)ccc1-n1cnc(Cn2nc(-c3ccc(Cl)cc3)n(C[C@H](O)C(F)(F)F)c2=O)n1` [Example 426, 2-[3-({3-(4-Chlorophenyl)-5-oxo-4-[(2S)-3,3,3-trifluoro-2-hydroxypropyl]-4,5-dihydro-1H-1,2,4-triazol-1-yl}methyl)-1H-1,2,4-triazol-1-yl]-5-fluoro-N-(2,2,2-trifluoroethyl)benzamide], for which the IC50 on human V2 receptor was found to be 0.125 µM. For the same compound, at human V1a receptor, the half-maximal inhibitory concentration (IC50) is 0.019 µM and the “ratio IC50 hV2/hV1a” value is 6.6.

Take `O=C(NCC(F)(F)F)c1cc(Cl)ccc1-n1cnc(Cn2nc(-c3ccc(Cl)cc3)n(C[C@H](O)C(F)(F)F)c2=O)n1` [Example 427, 5-Chloro-2-[3-({3-(4-chlorophenyl)-5-oxo-4-[(2S)-3,3,3-trifluoro-2-hydroxypropyl]-4,5-dihydro-1H-1,2,4-triazol-1-yl}methyl)-1H-1,2,4-triazol-1-yl]-N-(2,2,2-trifluoroethyl)benzamide]: the IC50 on human V2 receptor was 0.0727 µM. At human V1a receptor, the half-maximal inhibitory concentration (IC50) was 0.021 µM and the “ratio IC50 hV2/hV1a” value is 3.5.

With `O=C(NCC(F)(F)F)c1ncccc1-n1cnc(Cn2nc(-c3ccc(Cl)cc3)n(C[C@H](O)C(F)(F)F)c2=O)n1` [Example 428, 3-[3-({3-(4-Chlorophenyl)-5-oxo-4-[(2S)-3,3,3-trifluoro-2-hydroxypropyl]-4,5-dihydro-1H-1,2,4-triazol-1-yl}methyl)-1H-1,2,4-triazol-1-yl]-N-(2,2,2-trifluoroethyl)pyridine-2-carboxamide], the IC50 at human V2 receptor is 1.29 µM. Also, at human V1a receptor, the IC50 was 0.041 µM and the “ratio IC50 hV2/hV1a” value came to 31.5.
